Results: ChEMBL document CHEMBL1153744, “Diketopiperazines from the Cordyceps-colonizing fungus Epicoccum nigrum” (J Nat Prod, 2009)

Experiments:
[1] = test system: Human immunodeficiency virus 1; assay: Inhibition of HIV1 viral replication infected in human C8166 cells assessed as suppression of virion-associated p24 antigen production after 4 days by ELISA; assay type: functional, organism-based; conditions: Human immunodeficiency virus 1, C8166, 96 h
[2] = Cytotoxicity against human […] cells after 4 days by MTT assay; assay type: cell-based

SMILES	EC50 [1] [µM]	CC50 at 96 h [2] [µM]
CN1C(=O)[C@H](Cc2ccccc2)NC(=O)/C1=C/c1ccccc1 [DIPHENYLALAZINE A]	27.9	> 100
CS[C@@]12C[C@H]3C(=O)C[C@H](O)[C@H](O)[C@H]3N1C(=O)[C@]1(SC)C[C@H]3C(=O)C[C@H](O)[C@H](O)[C@H]3N1C2=O [EPICOCCIN H]	42.2	> 100
CS[C@@]12C[C@H]3C(=O)CC[C@H](O)[C@H]3N1C(=O)[C@]1(SC)C[C@H]3C(=O)CC[C@H](O)[C@H]3N1C2=O [EPICOCCIN G]	13.5	> 100
